Legend:
[1] = biological target: T1, human blood platelet PDE5 (Homo sapiens, UniProt O76074); test: PDE5 enzyme inhibition activity test (scintillation proximity); type: biochemical
T1 construct: obtained by suitably treating various tissues and separating the enzyme with FPLC; from tissue; host or cells: human blood platelets
Method: (§1) More specifically, PDE5 and PDE3 were obtained from human blood platelet, and PDE6 was separated from bovine retina. Upon enzyme was separated out, the enzyme inhibition activity test would be carried out immediately. The said enzyme inhibition activity test was performed by directly detecting the scintillation proximity of AMP/GMP using TRKQ7100 and TRKQ7090 kits, which was generally as follows. In the presence of different concentrations of inhibitor and a small amount of substrate, 10 μl of buffer (50 mM Tris/HCl PH 7.5, 8.3 mM MgCl2, 1.7 mM EGTA) was added, and then water was added to a final volume of 100 μl. The reaction was initiated with a fixed amount of enzyme, incubated at 30° C. for 30 min, and then quenched with 50 μl of yttrium silicate beads comprising zinc sulphate. After shaken for 20 min, the reaction mixture was put in dark and settled for 30 min, and then readed on a BECKMAN LS6500 MULTI-PURPOSE SCINTILLATION COUNTER.

PDE6 in bovine retina = biological target: T2, PDE6 in bovine retina (Bos taurus, UniProt P11541+P23439); test: PDE6 enzyme inhibition activity test (scintillation proximity); type: biochemical; conditions: for IC50: PDE6 separated from bovine retina, read-out: PDE6 IC50; for PDE6 IC50/PDE5 IC50: selectivity, ratio of IC50 PDE6/IC50 PDE5
T2 construct: obtained by suitably treating various tissues and separating the enzyme with FPLC; from tissue; host or cells: bovine retina
T2 sequence (P11541 2-856 limits assumed): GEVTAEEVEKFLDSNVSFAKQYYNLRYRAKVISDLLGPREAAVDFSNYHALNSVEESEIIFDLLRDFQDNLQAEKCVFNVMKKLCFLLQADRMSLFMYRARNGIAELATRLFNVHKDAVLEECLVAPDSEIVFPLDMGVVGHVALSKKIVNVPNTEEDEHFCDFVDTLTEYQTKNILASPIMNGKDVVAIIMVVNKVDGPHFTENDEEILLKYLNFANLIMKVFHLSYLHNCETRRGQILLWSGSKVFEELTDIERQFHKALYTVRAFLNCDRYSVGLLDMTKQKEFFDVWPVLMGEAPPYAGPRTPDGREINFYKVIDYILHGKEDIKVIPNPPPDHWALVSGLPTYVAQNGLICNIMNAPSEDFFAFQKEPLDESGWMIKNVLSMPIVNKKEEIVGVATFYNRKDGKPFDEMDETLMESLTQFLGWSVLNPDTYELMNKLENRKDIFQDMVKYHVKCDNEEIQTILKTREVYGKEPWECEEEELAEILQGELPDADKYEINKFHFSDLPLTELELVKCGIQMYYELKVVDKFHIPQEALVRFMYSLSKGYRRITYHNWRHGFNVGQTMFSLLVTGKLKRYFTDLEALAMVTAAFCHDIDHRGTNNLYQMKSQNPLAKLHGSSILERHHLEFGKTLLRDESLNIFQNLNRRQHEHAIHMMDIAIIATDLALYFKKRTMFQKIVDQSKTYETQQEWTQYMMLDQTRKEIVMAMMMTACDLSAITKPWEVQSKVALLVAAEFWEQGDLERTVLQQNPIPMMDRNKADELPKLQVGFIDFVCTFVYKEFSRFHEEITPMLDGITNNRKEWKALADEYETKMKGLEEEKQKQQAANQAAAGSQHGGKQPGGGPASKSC
T2 sequence (P23439 2-850 limits assumed): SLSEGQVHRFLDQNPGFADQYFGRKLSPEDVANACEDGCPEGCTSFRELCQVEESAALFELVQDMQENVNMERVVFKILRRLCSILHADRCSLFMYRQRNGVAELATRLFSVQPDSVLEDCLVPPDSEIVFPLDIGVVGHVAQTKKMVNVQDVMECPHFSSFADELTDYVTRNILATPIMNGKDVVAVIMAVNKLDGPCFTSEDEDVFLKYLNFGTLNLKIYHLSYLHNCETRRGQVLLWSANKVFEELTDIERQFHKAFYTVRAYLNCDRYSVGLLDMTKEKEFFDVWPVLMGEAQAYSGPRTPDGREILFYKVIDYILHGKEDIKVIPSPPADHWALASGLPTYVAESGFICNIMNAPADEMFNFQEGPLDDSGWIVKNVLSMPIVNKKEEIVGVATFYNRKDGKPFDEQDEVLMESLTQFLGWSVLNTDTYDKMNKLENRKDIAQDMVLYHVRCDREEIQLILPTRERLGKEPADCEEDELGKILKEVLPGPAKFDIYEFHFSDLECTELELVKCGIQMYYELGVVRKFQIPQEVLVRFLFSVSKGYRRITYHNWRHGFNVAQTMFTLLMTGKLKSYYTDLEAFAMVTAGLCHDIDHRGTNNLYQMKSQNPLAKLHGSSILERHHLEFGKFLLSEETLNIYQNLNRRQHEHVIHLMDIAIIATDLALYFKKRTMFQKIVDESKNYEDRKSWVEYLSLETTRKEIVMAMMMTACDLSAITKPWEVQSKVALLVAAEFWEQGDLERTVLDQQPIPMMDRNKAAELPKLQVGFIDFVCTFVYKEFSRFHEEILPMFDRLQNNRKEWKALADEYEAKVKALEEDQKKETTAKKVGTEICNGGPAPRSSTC
Method: as §1

| Structure (SMILES) | IC50 ([1]; PDE5 table) [nM] | IC50 ([1]; as repeated in the PDE6 table) [nM] | IC50 (PDE6 in bovine retina) [nM] | PDE6 IC50/PDE5 IC50 (PDE6 in bovine retina) |
| --- | --- | --- | --- | --- |
| CCCOc1ccc(C(=O)NC(C)C(=O)O)cc1-c1nc(CC)c(CC)c(=O)[nH]1 (stereo not drawn) [Example 145, 2-(3-(4,5-diethyl-1,6-dihydro-6-oxopyrimidin-2-yl)-4-n-propoxybenzamido)propionic acid] | 0.47 | 0.47 | 24.2 | 51.5 |
| CCCOc1ccc(S(=O)(=O)NC(CC(N)=O)C(=O)O)cc1-c1nc(CC)c(CC)c(=O)[nH]1 (stereo not drawn) [Example 126, 2-(N-(3-(4,5-diethyl-1,6-dihydro-6-oxopyrimidin-2-yl)-4-n-propoxyphenyl)sulfonyl)amino-3-aminoformylpropionic acid] | 1.79 | 1.79 | 54.9 | 30.7 |
| CCCOc1ccc(C(=O)N2CCN(C)CC2)cc1-c1nc(CC)c(CC)c(=O)[nH]1 [Example 205] | 1.93 | 1.93 | 17.2 | 8.9 |
| CCCOc1ccc(NC(=O)c2ccccc2)cc1-c1nc(CC)c(CC)c(=O)[nH]1 [Example 186, N-(3-(4,5-diethyl-1,6-dihydro-6-oxopyrimidin-2-yl)-4-n-propoxyphenyl)benzamide] | 0.34 | 0.34 | 7.4 | 21.4 |
| CCCOc1ccc(NC(N)=O)cc1-c1nc(CC)c(CC)c(=O)[nH]1 [Example 67, 1-(3-(4,5-Diethyl-1,6-dihydro-6-oxopyrimidin-2-yl)-4-n-propoxyphenyl)urea] | 1.61 | 1.61 | 26.9 | 16.7 |
| CCCOc1ccc(NS(C)(=O)=O)cc1-c1nc(CC)c(CC)c(=O)[nH]1 [Example 51, 5,6-Diethyl-2-(2-n-propoxy-5-mesylamidophenyl)pyrimid-4(3H)-one] | 1.23 | 1.23 | 34.8 | 28.3 |
| CCCOc1ccc(C(=O)N2CCCCC2)cc1-c1nc(CC)c(CC)c(=O)[nH]1 [Example 60, (piperid-1-yl)(3-(4,5-diethyl-1,6-dihydro-6-oxopyrimidin-2-yl)-4-n-propoxy)benzophenone] | 2.04 | 2.04 | 8.19 | 4.0 |
| CCCOc1ccc(NC(=O)C2CC(O)CN2C(=O)OC(C)(C)C)cc1-c1nc(CC)c(CC)c(=O)[nH]1 (stereo not drawn) [Example 57, N-(3-(1,6-dihydro-4,5-diethyl-6-oxopyrimidin-2-yl)-4-propoxyphenyl)-1-t-butyloxycarbonyl-4-hydroxyprolylamide] | 1.19 | 1.19 | 8.19 | 6.9 |
| CCCOc1ccc(C(=O)NC(Cc2ccccc2)C(=O)O)cc1-c1nc(CC)c(CC)c(=O)[nH]1 (stereo not drawn) [Example 138, 2-(3-(4,5-diethyl-1,6-dihydro-6-oxopyrimidin-2-yl)-4-n-propoxybenzamido)-3-phenylpropionic acid] | 0.47 | 0.47 | 5.42 | 11.4 |
| CCCOc1ccc(C(=O)NC(C)C(=O)N2CCN(C)CC2)cc1-c1nc(CC)c(CC)c(=O)[nH]1 (stereo not drawn) [Example 154, 3-(4,5-diethyl-1,6-dihydro-6-oxopyrimidin-2-y1)-N-(1-(4-methylpiperazin-l-yl)-1-oxopropan-2-y1)-4-n-propoxybenzamide] | 0.4 | 0.4 | 37.9 | 94.6 |
| CCCOc1ccc(C(=O)NC(Cc2ccccc2)C(=O)OC)cc1-c1nc(CC)c(CC)c(=O)[nH]1 (stereo not drawn) [Example 150, methyl 2-(3-(4,5-diethyl-1,6-dihydro-6-oxopyrimidin-2-yl)-4-n-propoxybenzamido)-3-phenylpropionate] | 0.52 | 0.52 | 2.78 | 5.3 |
| CCCOc1ccc(C(=O)N2CCOCC2)cc1-c1nc(C(C)C)c(Br)c(=O)[nH]1 [Example 63, (Morpholin-1-yl)(3-(4-isopropyl-5-bromo-1,6-dihydro-6-oxopyrimidin-2-yl)-4-n-propoxy)benzophenone] | 1.24 | 1.24 | 33.4 | 26.9 |
| CCCOc1ccc(NC(=O)CC)cc1-c1nc(CC)c(CC)c(=O)[nH]1 [Example 54, N-(3-(1,6-dihydro-4,5-diethyl-6-oxopyrimidin-2-yl)-4-propoxyphenyl)propionamide] | 1.21 | 1.21 | 13.2 | 10.9 |
| CCCOc1ccc(NS(C)(=O)=O)cc1-c1nc(C(C)C)c(Br)c(=O)[nH]1 [Example 50, 5-Bromo-6-isopropyl-2-(2-n-propoxy-5-mesylamidophenyl)pyrimid-4(3H)-one] | 1.24 |  | 114 | 91.9 |
| CCCOc1ccc(S(=O)(=O)NCCN2CCOCC2)cc1-c1nc(CC)c(CC)c(=O)[nH]1 [Example 31, 5,6-diethyl-2-{2-n-propoxy-5-[N-(2-morpholinylethyl)aminosulfonyl)phenyl}pyrimid-4(3H)-one] | 1.36 | 1.36 | 52.8 | 38.8 |
| CCCOc1ccc(NC(=O)CC(=O)OCC)cc1-c1nc(CC)c(CC)c(=O)[nH]1 [Example 102, ethyl N-(3-(4,5-diethyl-1,6-dihydro-6-oxopyrimidin-2-yl)-4-n-propoxyphenyl)aminoformylacetate] | 4.61 | 4.61 | 24.6 | 5.33 |
| CCCOc1ccc(C(=O)NCCCS(=O)(=O)O)cc1-c1nc(CC)c(CC)c(=O)[nH]1 [Example 169, 3-(3-(4,5-diethyl-1,6-dihydro-6-oxopyrimidin-2-yl)-4-n-propoxybenzamido)propyl-1-sulfonic acid] | 0.11 | 0.11 | 10.4 | 91.3 |
| CCCOc1ccc(S(=O)(=O)NC(C)C(=O)OCC)cc1-c1nc(CC)c(CC)c(=O)[nH]1 (stereo not drawn) [Example 123, ethyl 2-(N-(3-(4,5-diethyl-1,6-dihydro-6-oxopyrimidin-2-yl)-4-n-propoxyphenyl)sulfonyl)aminopropionate] | 0.49 | 0.49 | 13.3 | 27.3 |
| CCCOc1ccc(NC(=O)NCCN(CC)CC)cc1-c1nc(CC)c(CC)c(=O)[nH]1.O=C(O)/C=C\C(=O)O [Example 204, 1-(2-(Diethylamino)ethyl)-3-(3-(4,5-diethyl-1,6-dihydro-6-oxopyrimidin-2-yl)-4-n-propoxyphenyl)urea maleate] | 0.88 | 0.88 | 54.5 | 61.9 |

From patent publication US8871777B2, “Phenylpyrimidone compounds, the pharmaceutical compositions, preparation methods and uses thereof” (Topharman Shanghai Co., Ltd., priority 2008, dated 2014)
